pIC50: −log10 of the molar value. ≈ marks a conversion by molar mass, not a printed value. Where two headings read alike, the source gives them in different places. Each block holds one molecule with its values, some of them ahead of it. Bridge positions count the residues as written; N and C are the ends. Square brackets hold non-standard residues; d marks the D form. Peptide text beside a SMILES is read from it. I, II: the chains in the order shown. Ahx = NCCCCCC(=O)O
Columns and labels:
MCF-12 cell line = assay type: cell-based, human
Procedure: (§1) For all cell lines, the medium used was Dulbecco’s Modified Eagle’s Medium (DMEM)/Nutrient Mixture F-12 Ham. For the HTB-132, MCF-7, and MCF-12A lines, the medium was supplemented with 10% fetal bovine serum (SFB), and 1.5 g/L NaHCO3 and NaOH were added up to pH 7.4, amphotericin (200 μg/mL), and 1% penicillin and streptomycin. For the primary culture cells of bovine mammary epithelium and fibroblasts, in addition to the above, hydrocortisone (250 μg/mL) was added. All media were filtered through a 0.22 μm membrane.
(§2) Briefly, the cells were seeded with a complete medium in 96-well plates at a rate of 10,000 cells and 100 µL per well, and adhesion to the plates was allowed for 24 h. Subsequently, the complete medium was removed and an incomplete medium was added for synchronization for another 24 h. The cells were then incubated at 37 °C for 2, 24, or 48 h with 100 μL of peptide at the concentrations to be evaluated (200, 100, 50, 25, 12.5, 6.25 and 3.1 μg/mL). Next, the peptide was removed from the box, and 100 µL of incomplete medium with 10% 3-4,5-dimethylthiazol-2-yl-2,5-diphenyltetrazole (MTT) bromide was added and incubated for 4 h. The medium was replaced with 100 μL of isopropanol (IPA), and after 30 min of incubation at 37 °C, the absorbance was measured at 575 nm. As a negative control, an incomplete culture medium with 10% MTT was used, and as a positive control, cells without MTT treatment were used.

HTB-132 cell line [1] = assay: MTT viability test, HTB-132 cells; assay type: cell-based, human; settings: for IC50, cytotoxic effect, HTB-132: 24 h at 37 °C, mean of n = 3
Procedure: as §1, §2

MCF-7 cells [2] = assay: Mitochondrial membrane depolarization, JC-1 flow cytometry; assay type: cell-based, human; settings: MCF-7, peptide 15 µM
Procedure: For this test, the MitoProbeTM JC-1 Assay kit (M34152 from Termofisher, Walthan, MA, USA) was used according to the supplier’s recommendations. The cells seeded and synchronized in a box of 24 wells (4 × 10^4 cells/well) were incubated with 400 μL of peptide to be evaluated at 2 and 24 h. The cells were then trypsinized and collected by centrifugation at 400 g × 5 min. The resulting pellet was stained by adding 100 μL of JC1 “working solution” (1:100 JCI solution reconstituted in DMSO: buffer assay 1×) and incubated at 37 °C for 20 min. Subsequently, the cells were washed twice with 1× buffer assay and finally resuspended in 100 μL of 1× buffer assay for reading on the cytometer. Negative control: cells without treatment; positive control: cells treated with 10 μM actinomycin for 24 h.

[3] = tested on: breast cancer cell lines HTB-132 and MCF-7; assay type: cell-based, human; settings: 24 h
Procedure: as §2

MCF-7 cells [4] = assay: Integrity of the cytoplasmic membrane, SYTO9/PI flow cytometry; assay type: cell-based, human; settings: MCF-7, peptide 15 µM, PI and SYTO9
Procedure: The cells with complete medium were seeded and synchronized in boxes of 24 wells in a concentration of 4 × 10^4 cells/well in a volume of 400 μL/well, and adhesion to the plate was allowed for 24 h [52]. Then the complete medium was replaced by incomplete medium for synchronization of the cells for an additional 24 h. […] The cells were harvested by adding 200 μL of trypsin and incubating for 10 min. The trypsin was quenched with 200 µL of complete medium, and the cells were centrifuged at 2500 rpm for 10 min. The supernatant was discarded, and the pellet was washed with 100 µL PBS and centrifuged under the same conditions previously described. The supernatant was discarded, and the cells were stained with 30 μL of a solution from the LIVE/DEAD® FungaLigthTM commercial kit (Invitrogen) containing the mixture of fluorochromes (0.5 μL of SYTO9 and/or 0.5 μL of propidium iodide (PI) with 99 μL of PBS). Subsequently, the cells were incubated at room temperature and in the dark for 20 min and centrifuged, and the supernatant was discarded. The pellet was resuspended in 100 μL of PBS and analyzed via flow cytometry in a BD Accuri C6 device. The events were recorded using the green channel (FL1) on the abscissa axis and the red (FL3) on the ordinate axis. Negative control: untreated cells marked with both fluorophores; positive control: cells treated with actinomycin 10 μg/mL for 24 h [52]. […]

MCF-7 cell line = assay: MTT viability test, MCF-7 cells; assay type: cell-based, human
Procedure: as §1, §2

MCF-7 cells [5] = assay: Type of cell death (apoptosis/necrosis), Annexin V/PI flow cytometry; assay type: cell-based, human; settings: MCF-7, peptide 15 µM, 24 h, annexin V and PI
Procedure: The cells were seeded and synchronized in boxes of 24 wells at a concentration of 4 × 10^4 cells/well in 400 μL/well, adhesion and synchronization were allowed in the same way as in Section 4.8, and the culture medium was replaced with medium containing the peptide to be evaluated and incubated for 2 or 24 h. Subsequently, the cells were harvested with trypsin, centrifuged at 2500 rpm for 10 min, washed with PBS, and resuspended in 10 μL of staining buffer with the fluorochromes (10 mM Hepes pH 7.4; 10 mM NaCl and 2.5 mM CaCl2 containing 1 μL of PI fluorochrome and 1 μL of Annexin V). Cells with the fluorochromes were incubated at 37 °C in the dark for 15 min and resuspended in 80 μL of staining buffer without fluorochromes for analysis via flow cytometry. The positive control of necrosis was: cells treated with EDTA 15 mM for 60 min, and apoptotic: cells treated with Actinomycin at 10 μM for 24 h. Negative control: cells without treatment; compensation controls: (i) cells stained only with Annexin, and (ii) only with PI; population control: unstained and untreated cells.

MCF-7 cells [6] = assay: Cell morphology and size by inverted microscope; assay type: cell-based, human; settings: MCF-7, 90 min of treatment, 37 °C; from 100.27 μm before; average of 100 measurements; Figure 3: 100 µg/mL
Procedure: Cell morphology was monitored before and after treatment with ^26[L] or ^26[F] at different times, using an inverted microscope coupled to an AxioCam ICc1 camera (Figure 3). The untreated cells had normal morphologic characteristics as polygonal, flattened, and elongated cells with long and defined axons (data not shown). After 5 min of treatment with the peptide, most cells retained their morphology; however, some began to appear rounded and shrunken. After 90 min, the cells treated with the peptide (^26[L] or ^26[F]) took on a rounded shape, and shrinkage was observed, going from an average size of 100.27 μm to 39.38 µm. […] At 24 h of treatment, the appearance of small vacuoles was observed, presumably associated with late apoptosis events. Finally, it was observed that the effect of the peptide was sustained up to 48 h since at that time no recovery of cell morphology was observed.
Figure 3 Micrography of MCF-7 cells treated with peptide ^26[F] at 100 µg/mL. The cells were incubated in the absence (A) or the presence of the peptide at (B) 5 min, (C) 90 min, (D) 240 min, (E) 24 h, and (F) 48 h at 37 °C. The cell size was determined as an average of 100 measurements, using an AxioCam ICc1 camera.

Stability during storage = assay type: physicochemical; settings: Met residue prone to oxidation; Supplementary Figure S1
HTB-132 cell line [7] = assay: MTT viability test, HTB-132 cells; assay type: cell-based, human; settings: 24 h, concentration range 1–100 µg/mL
[8] = tested on: MDA-MB 231 breast cancer cells; settings: peptide 100 µg/mL (30 µM); earlier work, ref not given; cited from earlier work
From the text: (§3) Breast cancer is the most common cancer type diagnosed worldwide. There are 2.1 million cases annually, and 627,000 deaths of women due to this disease were reported in 2018 [5]. […] However, when this motif was modified or included in longer sequences, the cytotoxic effect against human cancer cell lines increased. In ...

[9] = tested on: MDA-MB 468 breast cancer cells; settings: peptide 100 µg/mL (30 µM); earlier work, ref not given; cited from earlier work
From the text: as §3

[10] = MTT, 24 h at 37 °C, three independent experiments with n = 4 each

pIC50 (MCF-12 cell line; 24 h): 4.68
pIC50 [3]: 4.89 to 5.22
SMILES: CC(C)C[C@H](NC(=O)[C@H](CCCCN)NC(=O)[C@H](CCCCN)NC(=O)[C@H](Cc1ccccc1)NC(=O)[C@H](CCCNC(=N)N)NC(=O)[C@H](Cc1c[nH]c2ccccc12)NC(=O)[C@H](CCC(N)=O)NC(=O)[C@H](Cc1c[nH]c2ccccc12)NC(=O)[C@H](CCCNC(=N)N)NC(=O)[C@@H](N)CCCNC(=N)N)C(=O)NCC(=O)NCCCC[C@H](NC(=O)CNC(=O)[C@H](CC(C)C)NC(=O)[C@H](CCCCN)NC(=O)[C@H](CCCCN)NC(=O)[C@H](Cc1ccccc1)NC(=O)[C@H](CCCNC(=N)N)NC(=O)[C@H](Cc1c[nH]c2ccccc12)NC(=O)[C@H](CCC(N)=O)NC(=O)[C@H](Cc1c[nH]c2ccccc12)NC(=O)[C@H](CCCNC(=N)N)NC(=O)[C@@H](N)CCCNC(=N)N)C(=O)NCCCCCC(N)=O [^26[F], (RRWQWRFKKLG)2-K-Ahx] (I: H-RRWQWRFKKLGK[Ahx]-NH2 / II: H-RRWQWRFKKLG; amide I:12-II:C)
cytotoxic effect against MCF-12 compared with HTB-132 and MCF-7 (in words) (MCF-12 cell line): lower cytotoxic effect against MCF-12 cells than against breast cancer cell lines
IC50, non-tumorigenic cell line MCF-12 (MCF-12 cell line; MTT, 24 h at 37 °C): 70 µg/mL (≈ 20.9 µM)
cytotoxic effect against HTB-132 compared with ^26[M] (in words) (HTB-132 cell line [1]; MTT, 24 h): greater cytotoxic effect against cancer cells than the original peptide
IC50, cytotoxic effect, HTB-132 (HTB-132 cell line [1]; MTT): 43 µg/mL (≈ 12.9 µM)
pIC50 (HTB-132 cell line [1]; human, 24 h, pH 7.4): 4.89
population with depolarization of the mitochondrial membrane (MCF-7 cells [2]): 19%
cell population with cytoplasmic membrane affected (MCF-7 cells [4]): 10%
cytotoxic effect against MCF-7 compared with ^26[M] (in words) (MCF-7 cell line; MTT, 24 h): greater cytotoxic effect against MCF-7 cells than the peptide
IC50, cytotoxic effect, MCF-7 (MCF-7 cell line; [10]): 19 µg/mL (≈ 5.68 µM)
maximum cytotoxic effect, MCF-7 (MCF-7 cell line; MTT, peptide 200 µg/mL, regardless of treatment time (2, 24, 48 h)): approximately 90%
pIC50 (MCF-7 cell line; human, 24 h, pH 7.4): 5.22
cell population dyed with both fluorophores (apoptotic process) (MCF-7 cells [5]): 54%
cell population dyed with only PI (necrotic process) (MCF-7 cells [5]): 21%
average cell size after treatment (MCF-7 cells [6]): 39.38 µm

SMILES: CSCC[C@H](NC(=O)[C@H](CCCNC(=N)N)NC(=O)[C@H](Cc1c[nH]c2ccccc12)NC(=O)[C@H](CCC(N)=O)NC(=O)[C@H](Cc1c[nH]c2ccccc12)NC(=O)[C@H](CCCNC(=N)N)NC(=O)[C@@H](N)CCCNC(=N)N)C(=O)N[C@@H](CCCCN)C(=O)N[C@@H](CCCCN)C(=O)N[C@@H](CC(C)C)C(=O)NCC(=O)NCCCC[C@H](NC(=O)CNC(=O)[C@H](CC(C)C)NC(=O)[C@H](CCCCN)NC(=O)[C@H](CCCCN)NC(=O)[C@H](CCSC)NC(=O)[C@H](CCCNC(=N)N)NC(=O)[C@H](Cc1c[nH]c2ccccc12)NC(=O)[C@H](CCC(N)=O)NC(=O)[C@H](Cc1c[nH]c2ccccc12)NC(=O)[C@H](CCCNC(=N)N)NC(=O)[C@@H](N)CCCNC(=N)N)C(=O)NCCCCCC(N)=O [^26[M], (RRWQWRMKKLG)2-K-Ahx] (I: H-RRWQWRMKKLGK[Ahx]-NH2 / II: H-RRWQWRMKKLG; amide I:12-II:C)
stability during storage (in words) (Stability during storage): stability problems
IC50, cytotoxic effect, HTB-132 (HTB-132 cell line [1]; MTT): 96 µg/mL (≈ 29 µM)
cytotoxic effect against MCF-7 (in words) (MCF-7 cell line; MTT, 24 h): does not exhibit a significant cytotoxic effect
IC50, cytotoxic effect, MCF-7 (MCF-7 cell line; [10]): > 200 µg/mL
pIC50 (MCF-7 cell line; MTT, 24 h at 37 °C, three independent experiments with n = 4 each, read-out: IC50, cytotoxic effect, MCF-7): < 4.22
cytotoxic effect at the maximum evaluated concentration, HTB-132 (HTB-132 cell line [7]): ~55%
cellular viability, MDA-MB 231 [8]: ~ 0%
cytotoxic effect, MDA-MB 231 [8]: ~100%
cellular viability, MDA-MB 468 [9]: ~ 0%
cytotoxic effect, MDA-MB 468 [9]: ~100%

Source: PMC7352952, “Peptides Derived from (RRWQWRMKKLG)2-K-Ahx Induce Selective Cellular Death in Breast Cancer Cell Lines through Apoptotic Pathway” (International Journal of Molecular Sciences, 2020)
